# Results published in PubChem BioAssay (NCI).
#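 Where inhibition never reached the appropriate level, the endpoint shown equals the highest concentration tested. Otherwise, values were interpolated linearly from a five-concentration, 48-hour dose response in 96-well plates. GI50: concentration for 50% inhibition of growth. TGI is the concentration that stops growth completely.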
# Experiments:
# Experiment in all cases: NCI tumour cell line growth inhibition, 48 h
# [1] = tested on: SN12C renal
# [2] = tested on: A549 NSCLC
# [3] = tested on: SNB-75 CNS
# [4] = tested on: OVCAR-5 ovarian
# [5] = tested on: KM12 colon
# [6] = tested on: U251 CNS
# [7] = tested on: NCI-H226 lung
# [8] = tested on: PC-3 prostate
# [9] = tested on: ACHN renal
# [10] = tested on: RXF 393 renal
Structure (SMILES),GI50 [1] [µM],TGI [1] [µM],GI50 [2] [µM],TGI [2] [µM],GI50 [3] [µM],TGI [3] [µM],GI50 [4] [µM],TGI [4] [µM],GI50 [5] [µM],TGI [5] [µM],GI50 [6] [µM],TGI [6] [µM],GI50 [7] [µM],TGI [7] [µM],GI50 [8] [µM],TGI [8] [µM],GI50 [9] [µM],TGI [9] [µM],GI50 [10] [µM],TGI [10] [µM]
COc1ccc(C(=O)Nc2ncc(Cc3ccc(F)cc3)s2)cc1,0.0988,> 100,0.0678,> 100,0.036,> 100,0.406,99.6,0.0408,6.2,0.0686,> 89.1,0.0829,> 100,0.0513,> 100,0.0664,> 95,0.0666,3.18
CC1OC(OC2C(OC3C[C@@]4(C)C(C[C@H](O)[C@H]5[C@H](C6(C)CCC(C(C)(C)O)O6)CCC54C)[C@]4(C)CC[C@@H](O)C(C)(C)C34)OC(CO)C(O)C2O)C(O)C(O)C1O (stereo not given in full) (tested in a mixture with another compound),,> 100,,> 100,,> 100,,> 100,,> 100,,> 100,,> 100,,> 100,,> 100,,> 100
O=C(c1ccc(O)cc1)c1ccc(C(=O)c2ccc(O)cc2)cc1,> 100,> 100,> 100,> 100,22.5,56.2,> 100,> 100,> 100,> 100,16.9,> 100,33.5,> 100,> 100,> 100,> 100,> 100,26.5,98.3
Cc1c(N2C(=O)/C(=C\c3ccc(O)cc3)N=C2c2ccccc2)c(=O)n(-c2ccccc2)n1C,> 100,> 100,> 100,> 100,> 100,> 100,> 100,> 100,> 100,> 100,> 100,> 100,> 100,> 100,> 100,> 100,> 100,> 100,> 100,> 100
O=C1C2C(C(=O)[N]1[Hg][c]1ccccc1)C1(Cl)C(Cl)=C(Cl)C2(Cl)C1(Cl)Cl (stereo not given),,,9.84,25,1.33,2.92,2.82,5.29,8.7,21.5,1.21,2.49,1.59,4.18,6.42,23.7,1.69,3.07,0.423,1.59
Cc1cc[c-]cc1.Fc1c[c-]c(-c2ccccn2)c(F)c1.N#CCC[PH+](CCC#N)c1ccccc1.[Pt+2],3.17,36.1,3.57,71.8,,,3.79,19.6,3.39,13.2,3.61,15.4,2.62,7.06,3.01,20.7,3.33,20.9,2.07,4.78
NNC(=O)CC(=O)Nc1ccccc1F,,> 100,,> 100,,> 100,,> 100,,> 100,,> 100,,> 100,,,,> 100,,> 100
Cc1cc(N(CCCNc2ccnc3cc(Cl)ccc23)Cc2cccs2)nc(Cl)n1,5.91,23.9,7.11,23.1,2.82,18,5.9,24.3,4.16,17,6.75,22.2,10.2,31.1,3.32,22.9,5.12,19.7,4.46,21.7
CCOC(=O)c1c(-c2[nH]c(C(=O)OCc3ccccc3)c(C)c2C(=O)OCC)[nH]c(C(=O)OCc2ccccc2)c1C,,> 100,,> 100,,77.2,,> 100,,,,> 100,,> 100,,,,> 100,,86.2
COc1ccc(-c2nnc3n(C)c(=O)c4ccccc4n23)cc1O,1.47,> 100,2.29,> 100,0.161,27.6,15.8,> 100,0.152,> 100,0.263,20.8,16.9,> 100,0.611,> 100,1.15,> 100,0.758,6.21
Cc1ccc(C(=O)Nc2ccc(CN3CCN(C)CC3)c(C(F)(F)F)c2)cc1C#Cc1cncc2ncccc12,0.24,11.1,0.473,5.24,0.264,1.39,0.653,5.71,0.338,4.49,0.52,1.84,0.625,6.19,3.15,21.4,0.162,0.999,0.29,1.05
Cc1cc(-c2ccccc2)c(C)n1Cc1ccc(Cl)cc1,5.78,> 100,5.73,> 100,3.17,> 100,12.3,> 100,4.26,> 100,4.65,> 100,26.3,> 100,5.18,> 100,4.99,> 100,2.33,16.6
COc1cc(C2[C@H]3C(=O)N(c4ccc(Cc5ccc(N6C(=O)[C@@H]7ON(c8ccccc8)C(c8cc(OC)c(OC)c(OC)c8)[C@@H]7C6=O)cc5)cc4)C(=O)[C@H]3ON2c2ccccc2)cc(OC)c1OC (stereo not given in full),,> 100,,> 100,,> 100,,> 100,,> 100,,> 100,,> 100,,,,> 100,,> 100
COc1cc2c(cc1OCCCCC(=O)Nc1ccc(-c3nc4ccccc4s3)cc1)N=C[C@@H]1CCCN1C2=O,2.81,9.72,3.38,11.2,,,3.56,11.9,2.94,12.4,1.9,6.63,2.91,7.83,2.04,5.93,3,8.53,1.61,3.05
CC(=O)OC1CCC2(C)C(CCC3C2CCC2(C)C(C4=CC(=O)OC4)CCC32)C1 (stereo not given),11.1,99.1,3.05,19.7,11.6,30.2,11.5,55.8,22.2,> 100,,,22.1,65.1,5.07,25.7,12.3,38.9,8.73,28.7
CSC(=S)N(C)NC(=O)c1cccc(C(=O)NN(C)C(=S)SC)n1,,92,,89,,98,,> 100,,> 100,,54.6,,81.5,,,,> 100,,74.4
CNC1=C(C)C(=O)C(C)=C(C(C)(C)CC(=O)n2cc(F)c(=O)[nH]c2=O)C1=O,,> 100,,> 100,,> 100,,> 100,,> 100,,> 100,,> 100,,,,> 100,,> 100
COc1ccc(S(=O)(=O)O)cc1NS(=O)(=O)c1ccc(C)cc1,,> 100,,> 100,,> 100,,> 100,,> 100,,> 100,,> 100,,> 100,,> 100,,
COc1cc(NCC(C#N)C#N)ccc1N=Nc1ccc([N+](=O)[O-])cc1,,> 100,,> 100,,> 100,,> 100,,> 100,,> 100,,> 100,,,,> 100,,> 100
CC(C)[C@@H](C(=O)O[C@@H]1/C=C/C(=O)O[C@@H](C)CCC/C=C/[C@@H]2C[C@H](O)C[C@H]21)[N+](C)(C)C,> 100,> 100,> 100,> 100,> 100,> 100,> 100,> 100,> 100,> 100,> 100,> 100,> 100,> 100,> 100,> 100,> 100,> 100,,
O=C1C2Cc3ccccc3CN2C(=O)N1CN1CCN(CN2C(=O)C3Cc4ccccc4CN3C2=O)CC1 (stereo not given),,> 100,,> 100,,> 100,,> 100,,> 100,,> 100,,> 100,,,,> 100,,> 100
CCC[CH2][Sn]1([CH2]CCC)[O]C(=O)C[S]1,1.91,5.09,8.9,23.5,1.35,3.27,2.09,5.27,2.6,10.9,1.33,2.65,1.93,3.77,,,1.64,3.04,0.573,1.88
BrP(NC1CCCCCC1)(c1ccccc1)(c1ccccc1)c1ccccc1,,16.1,,25.8,,,,52.7,,3.37,,13.4,,33,,5.53,,9.12,,5.57
O=S(=O)(NC(=S)Nc1ccccc1)c1ccc(N2N=C3c4ccccc4CC3C2c2ccc(Cl)cc2)cc1 (stereo not given),24.5,55.6,20.9,51.7,39.7,> 100,,,19.4,55.3,19.7,39.9,41.4,> 100,13.8,28.1,25.8,60.7,43.1,> 100
N/C(=N\OC(=O)NC(Cl)=C(Cl)Cl)c1cc(C(F)(F)F)cc(C(F)(F)F)c1,,60.8,,30.4,,,,38.3,,31.1,,31.3,,55.9,,38.9,,27.4,,
O=C1c2c(c3c4ccccc4n4c3c3c2c2ccccc2n3C/C=C\C4)C(=O)N1Cc1ccccc1,,> 100,,> 100,,68.9,,> 100,,> 100,,> 100,,> 100,,,,> 100,,> 100
Cn1c(=O)c(C(c2ccccc2)c2c(O)c3ccccc3n(C)c2=O)c(O)c2ccccc21,,> 100,,> 100,,> 100,,93.1,,> 100,,> 100,,65.9,,,,> 100,,> 100
CC(=O)OCCC/C(=C\c1ccc2ccccc2c1)[N+](=O)[O-],1.54,3.32,3.41,31.2,1.45,2.99,1.75,3.42,1.59,3.18,,,1.76,4.16,1.93,4.24,1.89,3.68,1.94,4.1
O=C(CCCn1ccnc1[N+](=O)[O-])NCCn1cnc([N+](=O)[O-])c1,,> 100,,> 100,,> 100,,> 100,,> 100,,> 100,,> 100,,> 100,,> 100,,
COc1cc(/C=C/C(=O)c2c(C)n([O-])c3cc(C)c(C)cc3[n+]2=O)cc(OC)c1OC,17.5,42.7,,,19.8,41.3,17.6,47.1,13.1,32.6,12,25.8,21.6,55.5,14.2,38.5,13.9,27.9,,
